From ChEMBL document CHEMBL4834494, “Discovery of the First Non-cGMP Mimetic Small Molecule Activators of cGMP-Dependent Protein Kinase 1 α (PKG1α)” (ACS Med Chem Lett, 2021)
Converted amounts (≈) assume the structure as drawn.

Legend:
[1] = Solubility of compound by pH 7 measured for 24 hrs by UPLC analysis; format: physicochemical; conditions: buffer
[2] = Apparent permeability in dog MDCKII cells; format: ADME, cell-based, Canis lupus familiaris, MDCK-II; conditions: MDCK
[3] = target: T1, cGMP-dependent protein kinase 1 (Homo sapiens, UniProt Q13976); experiment: Activation of PKG1alpha (unknown origin) in human HEK293 cellls assessed as […] phosphorylation at Ser 239 incubated for 3 hrs by HTRF assay; format: cell-based
T1 sequence (Q13976 whole entry): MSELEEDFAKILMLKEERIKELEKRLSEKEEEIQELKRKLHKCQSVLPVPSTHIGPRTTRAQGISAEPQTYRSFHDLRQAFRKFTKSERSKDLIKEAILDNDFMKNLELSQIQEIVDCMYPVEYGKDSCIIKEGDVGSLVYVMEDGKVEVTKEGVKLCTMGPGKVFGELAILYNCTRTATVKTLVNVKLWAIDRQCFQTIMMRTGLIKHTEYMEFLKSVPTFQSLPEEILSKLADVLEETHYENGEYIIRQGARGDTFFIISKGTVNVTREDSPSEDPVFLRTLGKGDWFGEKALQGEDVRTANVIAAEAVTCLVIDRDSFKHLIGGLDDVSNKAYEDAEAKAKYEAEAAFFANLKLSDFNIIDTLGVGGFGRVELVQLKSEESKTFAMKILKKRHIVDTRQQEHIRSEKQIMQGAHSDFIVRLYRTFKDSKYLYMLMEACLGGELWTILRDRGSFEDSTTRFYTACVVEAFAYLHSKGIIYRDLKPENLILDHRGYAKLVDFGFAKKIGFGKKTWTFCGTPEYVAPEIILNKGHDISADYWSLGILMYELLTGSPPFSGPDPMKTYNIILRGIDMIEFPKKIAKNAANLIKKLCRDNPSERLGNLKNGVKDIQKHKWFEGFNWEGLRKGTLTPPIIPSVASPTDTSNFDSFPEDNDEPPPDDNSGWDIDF

[4] = target: T1, cGMP-dependent protein kinase 1; experiment: Activation of full length PKG1alpha (unknown origin) using Glass-tide peptide substrate incubated for 120 mins followed by addition of ADP-Glo max reagent incubated for 40 mins

SMILES | solubility at 24 h [1] [µM] | Papp [2] [×10⁻⁶ cm/s] | EC50 [3] [µM] | EC50 [4] [µM]
Clc1cc(Cl)cc(CO[C@H]2CCCN(Cc3ncc[nH]3)[C@H]2c2ccccc2)c1 | 120 (≈ 50 µg/mL) | 2 | > 164 | –
OC[C@@H](O[C@H]1CCCN(Cc2ccc(-c3nn[nH]n3)cc2)[C@H]1c1ccccc1)c1cc(Cl)cc(Cl)c1 | – | – | – | 131
O=C(O)c1ccc(CN2CCC[C@H](OCc3cc(Cl)cc(Cl)c3)[C@@H]2c2ccccc2)cn1 | – | – | – | > 200
Cn1cc(CN2CCC[C@H](OCc3cc(Cl)cc(Cl)c3)[C@@H]2c2ccccc2)cn1 | – | – | – | 110
Clc1cc(Cl)cc(CO[C@H]2CCCN(Cc3ccccn3)[C@H]2c2ccccc2)c1 | – | – | – | > 200
CN1CCC[C@H](OCc2cc(Cl)cc(Cl)c2)[C@@H]1c1ccccc1 | – | – | – | > 200
Cn1ccnc1CN1CCC[C@H](OCc2cc(Cl)cc(Cl)c2)[C@@H]1c1ccccc1 | – | – | – | 165
OC[C@@H](O[C@H]1CCCN(Cc2ncc[nH]2)[C@H]1c1ccccc1)c1cc(Cl)cc(Cl)c1 | 60 (≈ 26.8 µg/mL) | 19 | 8.8 | –
Clc1cc(Cl)cc(CO[C@H]2CCCN(Cc3cccnc3)[C@H]2c2ccccc2)c1 | – | – | – | 112
O=C(O)c1cncc(CN2CCC[C@H](OCc3cc(Cl)cc(Cl)c3)[C@@H]2c2ccccc2)c1 | – | – | – | 117
Clc1cc(Cl)cc(CO[C@H]2CCCN(Cc3ncco3)[C@H]2c2ccccc2)c1 | – | – | – | > 200
Clc1cc(Cl)cc(CO[C@H]2CCCN(Cc3nccs3)[C@H]2c2ccccc2)c1 | – | – | – | > 200
Clc1cc(Cl)cc(CO[C@H]2CCCN(Cc3ccccc3)[C@H]2c2ccccc2)c1 | – | – | – | > 200
Clc1cc(Cl)cc(CO[C@H]2CCCN(Cc3ccncc3)[C@H]2c2ccccc2)c1 | – | – | – | > 200
COc1ccc(C(=O)O)cc1CN1CCC[C@H](OCc2cc(Cl)cc(Cl)c2)[C@@H]1c1ccccc1 | – | – | – | 123
C[C@@H](O[C@H]1OCCN(Cc2n[nH]c(=O)[nH]2)[C@H]1c1ccc(F)cc1)c1cc(C(F)(F)F)cc(C(F)(F)F)c1 [APREPITANT] | – | – | – | > 200

The next lines start with the values.

solubility at 24 h [1] [µM] | Papp [2] [×10⁻⁶ cm/s] | EC50 [3] [µM] | EC50 [4] [µM] | SMILES
74 (≈ 37.1 µg/mL) | 14 | 28 | 34 | O=C(O)c1cncc(CN2CCC[C@H](O[C@H](CO)c3cc(Cl)cc(Cl)c3)[C@@H]2c2ccccc2)c1
– | – | – | 42 | CN1CCC[C@H](O[C@H](CO)c2cc(Cl)cc(Cl)c2)[C@@H]1c1ccccc1
– | – | – | 76 | O=C(O)c1ccc(CN2CCC[C@H](OCc3cc(Cl)cc(Cl)c3)[C@@H]2c2ccccc2)cc1
– | – | – | 74 | Clc1cc(Cl)cc(CO[C@H]2CCCN(Cc3ccc(-c4nn[nH]n4)cc3)[C@H]2c2ccccc2)c1
85 (≈ 42.5 µg/mL) | 16 | 15 | 11 | O=C(O)c1ccc(CN2CCC[C@H](O[C@H](CO)c3cc(Cl)cc(Cl)c3)[C@@H]2c2ccccc2)cc1
– | – | – | 62 | COc1cc(C(=O)O)ccc1CN1CCC[C@H](OCc2cc(Cl)cc(Cl)c2)[C@@H]1c1ccccc1
154 (≈ 76.8 µg/mL) | 11 | 141 | 8 | OC[C@@H](O[C@H]1CCCN(Cc2cccc3nonc23)[C@H]1c1ccccc1)c1cc(Cl)cc(Cl)c1
128 (≈ 69.1 µg/mL) | 4 | 140 | 22 | O=C(O)c1ccc2c(CN3CCC[C@H](O[C@H](CO)c4cc(Cl)cc(Cl)c4)[C@@H]3c3ccccc3)c[nH]c2c1
154 (≈ 88.2 µg/mL) | 15 | 12 | 4.5 | COC(=O)Nn1c(C[C@H]2CCC[C@H](OCc3cc(C(F)(F)F)cc(C(F)(F)F)c3)[C@@H]2c2ccccc2)n[nH]c1=O
– | – | – | 3.7 | OC[C@@H](O[C@H]1CCCN(Cc2ccccc2Cc2nnco2)[C@H]1c1ccccc1)c1cc(Cl)cc(Cl)c1
– | – | – | 76 | O=C(O)c1ccc(CN2CCC[C@H](OCc3cc(Cl)cc(Cl)c3)[C@@H]2c2ccccc2)s1
